Test results published in patent publication US12226449B2, “Materials and methods for the prevention of rheumatoid arthritis” (The University of Toledo, priority 2018, dated 2025).
“Also recorded” adds a separate entry of the source.

Legend:
[1] = tested on: human PBMCs; experiment: ELISPOT assay of IFN-γ and IL-17 secreting cells; type: cell-based
Protocol: Cells were plated with 14-3-3ζ protein in a 96-well plate for 14 days at 37° C. in complete RPMI culture medium. Phytohemagglutinin (PHA) was used as a positive control. 10 μl MTT was added at a concentration of 5 mg/mL, and the plate was further incubated at 37° C. in the dark for 3 hours. Supernatant was then removed, and 100 μL DMSO was added for another hour before reading the absorbance at 570 nm using FLUOstar Omega microplate reader (BMG Labtech). For T cell differentiation, PBMCs were incubated with 1 μg/ml of 14-3-3ζ for 7 days followed by either the cellular staining for FACS analysis or ELISPOT as per manufacture's protocol. For testing the effect of drugs, prednisolone, prednisone, as well as TJU103, were used at 1 μg/ml concentration and cyclophosphamide was used at 0.1 μg/ml concentration.
The protocol was adopted from Immunospot kit from Cellular Technology Limited. In short, PBMCs incubated with 14-3-3ζ for 7 days were plated on the antibody coated ELISPOT plates. About 100,000 cells/well were added and incubated for 2 days at 37° C. followed by the developing protocol. Plates were read with a Quantihub ELISPOT plate reader and manually counted.

[2] = tested on: human PBMCs; experiment: PBMC proliferation, MTT assay; type: cell-based; settings: purified 14-3-3ζ 300 ng/ml and 1000 ng/ml, by 8 d; PHA 1% positive control
Protocol: Blood from healthy donors was collected as per the approved IRB protocol. The protocol for isolation of PBMCs was previously reported. In short, whole blood was diluted with an equal volume of RPMI before layering on Ficoll-Paque PLUS in a 15 mL tube. Tubes were then centrifuged for 25 minutes with the brakes off at 950 g. PBMCs were collected from the layer between the plasma and Ficoll liquid. PBMCs were then washed twice with RPMI, with 7 min spins at 350×g to pellet the cells. Finally, cells were resuspended in complete RPMI before counting and plating. […] Phytohemagglutinin (PHA) was used as a positive control. 10 μl MTT was added at a concentration of 5 mg/mL, and the plate was further incubated at 37° C. in the dark for 3 hours. Supernatant was then removed, and 100 μL DMSO was added for another hour before reading the absorbance at 570 nm using FLUOstar Omega microplate reader (BMG Labtech). For T cell differentiation, PBMCs were incubated with 1 μg/ml of 14-3-3ζ for 7 days followed by either the cellular staining for FACS analysis or ELISPOT as per manufacture's protocol.

[3] = tested on: human PBMCs; experiment: T cell polarization of PBMCs by flow cytometry (CD4, CD366, IL-17, CD8, CD69); type: cell-based
Protocol: Cells were plated with 14-3-3ζ protein in a 96-well plate for 14 days at 37° C. in complete RPMI culture medium. Phytohemagglutinin (PHA) was used as a positive control. 10 μl MTT was added at a concentration of 5 mg/mL, and the plate was further incubated at 37° C. in the dark for 3 hours. Supernatant was then removed, and 100 μL DMSO was added for another hour before reading the absorbance at 570 nm using FLUOstar Omega microplate reader (BMG Labtech). For T cell differentiation, PBMCs were incubated with 1 μg/ml of 14-3-3ζ for 7 days followed by either the cellular staining for FACS analysis or ELISPOT as per manufacture's protocol. […] PBMCs incubated with 14-3-3ζ for 7 days at 37° C. were fixed in 2% paraformaldehyde for an hour, and washed with PBS. […] For surface staining, cells were stained in 50 μL PBS with 5 μl per million cells antibody for 30 minutes in the dark on ice. For intracellular staining, cells were permeabilized with Triton for 10-15 min. After staining, cells were washed with PBS and resuspended in 1 mL PBS for analysis. The following antibodies from Biolegend Inc. were used: […] Cells were sorted at FACSCanto II system (BD Biosciences) and analyzed using FlowJo software (version 10). A gate was created around an initial population of cells in the FSC-SSC plot, and this population of cells was further analyzed for CD4, CD366, and IL-17 expression. Unstained and isotype labelled cells were used as a control for setting the gates.

[4] = tested on: 14-3-3ζ KO rats; experiment: Pristane-induced arthritis in 14-3-3ζ KO rats, 14-3-3ζ immunization; type: in vivo, rat; settings: IFA+14-3-3ζ vs IFA, days post-pristane
Description: FIGS. 16A-16B, to determine whether 14-3-3ζ is sufficient for RA suppression, 14-3-3ζ KO rats that are more susceptible to RA were used.

[5] = tested on: rats; experiment: Immunization of rats with IFA and 14-3-3ζ without pristane; type: in vivo, rat; settings: pristane absent
[6] = tested on: human PBMCs; experiment: ELISA of secreted (accumulated) cytokines of PBMCs; type: cell-based; settings: PBMC in the presence of 14-3-3ζ
[7] = tested on: human PBMCs; experiment: T cell polarization of PBMCs by flow cytometry (CD4, CD366, IL-17, CD8, CD69); type: cell-based; settings: incubated with 14-3-3ζ, 3 d
[8] = tested on: PBMC isolated from normal Lewis rats; experiment: Proliferation of rat PBMC incubated ex vivo; type: cell-based; settings: incubated with 14-3-3ζ ex vivo
[9] = tested on: Lewis rats; experiment: Pristane-induced arthritis (PIA) model, immunization with 14-3-3ζ in IFA; type: in vivo, rat
Protocol: FIG. 12A depicts the process used for this example for evaluating the prevention of RA in rats. All animals were injected with 150 μl of Pristane subcutaneously at the root of the tail followed by injecting either 1 mg/kg of IFA mixed with 14-3-3ζ protein or IFA alone the next day. Additional injection of either IFA alone or mixed with 14-3-3ζ proteins were given after one week. Animals were evaluated twice every week. Each joint (20 per paw, total of 80 per animal) was scored for inflammation. Both male and female rats were equally divided (n=6-8) between IFA and 14-3-3ζ treated sets. Rats were euthanized at 43 d and blood was collected for analysis.
Exposure to 14-3-3ζ generates a strong immune response in Lewis rats. Due to highly reproducible induction of severe inflammation and chronic arthritis, PIA is a one of the standard models to investigate rheumatoid arthritis an autoimmune disease. Intradermal injection of Pristane leads to a strong T-cell infiltration, followed by a cytokine increase as well as visual manifestation of joint inflammation, prominently observed in the Lewis rats. To test the antigenic role of 14-3-3ζ in vivo, purified 14-3-3ζ protein was injected along with IFA one day after the animals were treated with Pristane (FIG. 12A).
The animals were immunized with either IFA alone, or mixed with 14-3-3ζ (IFA+Z, 1 mg/kg) at 1 and 7 d-post pristine injection. Animals were monitored and scored for RA.

[10] = PIA treated Lewis rats immunized with 14-3-3ζ

In the case of “14-3-3ζ: human 14-3-3ζ protein, SEQ ID NO: 1, purified from E. coli; injected mixed with IFA in rats”, the “level of IFN-γ (number of IFN-γ colonies) compared with 14-3-3ε” value ([1]; FIG. 6B and FIG. 12L) is reported as “significantly more than 14-3-3ε”, the “number of IFN-γ and IL-17 secreting cells” value ([1]; PBMC treated with protein for 7 d) is reported as “robust response; also recorded: robust increase” and the “PBMC proliferation (MTT assay)” value [2] is reported as “promoted; also recorded: strong proliferation induction; also recorded: comparable and dose-dependent effect”. The “CD8+ cells (total number or activation)” value ([3]; 14-3-3ζ treated PBMC) was “No significant increase; also recorded: No change; also recorded: no significant effect”, the “total number of CD4+ cells” value ([3]; 14-3-3ζ treated PBMC, 7 d) was “no significant change” and the “CD4 cells positive for both CD366 and IL-17 (minor population <1%)” value ([3]; presence of 14-3-3ζ) was “unchanged”. For the same substance, the “CD366 or IL-17 positive CD4 cells (Th1, Th17)” value ([3]; protein 1 μg/ml, 7 d) was “more CD366 or IL-17 positive CD4 cells; also recorded: significant increase”, the RA score [4] was “suppressed the RA” and the body weight [4] was “gain in body weights”. For the same substance, the “induction of RA pathology (pathogenicity)” value ([5]; IFA and 14-3-3ζ) was “no significant induction of RA pathology”, the “immunogenicity: 14-3-3ζ antibody generation and IL-17 induction” value [5] was 14-3-3ζ antibody generation and IL-17 induction and the IL-6 level [6] was “no significant effect”. For the same substance, the “accumulated secreted IL-17 (IL-17A)” value [6] was “significant increased accumulation”, the “levels of IL-10 or IL-12” value [6] was “no effect” and the “CD69 expression on T cells (CD4 cells)” value [7] was “increases CD69 expression; also recorded: increased; also recorded: strong impact”. The “rat PBMC proliferation” value [8] was “increased proliferation”, the “joint inflammation / arthritis (RA) score” value ([9]; Lewis rats, pristane, 14-3-3ζ 1 mg/kg mixed with IFA at 1 and 7 d post pristane, compared to IFA alone, 1 mg/kg) was “protection against rheumatoid arthritis; also recorded: protection against the arthritis; also recorded: significantly less inflammation of joints; also recorded: significant reduction of RA scores; also recorded: absent; also recorded: relatively stronger inflammation in IFA treatment compared to 14-3-3ζ treatment; also recorded: no sign of arthritis; also recorded: prevents the development of RA” and the “increase in the level of IFN-γ in the circulating sera” value [9, 10] was 10 to 15 folds. The “increase in the level of IL-17 in the circulating sera” value [9, 10] was 10 to 15 folds, the “increase in the level of anti-14-3-3ζ IgG in the circulating sera” value [9, 10] was 10 to 15 folds and the “anti-14-3-3ζ antibody level (sera, synovial fluid)” value ([9]; compared to IFA alone) was “significant production of anti-14-3-3ζ IgG; also recorded: significantly higher levels; also recorded: increased 14-3-3ζ antibody levels”. For the same substance, the “circulating (sera) IFN-γ level” value ([9]; compared to IFA alone) was “significantly higher levels; also recorded: much higher levels”, the “circulating IL-17 level” value ([9]; compared to IFA alone) was “significantly higher levels” and the “H&E stain: immune cell infiltration and tissue damage” value ([9]; compared to IFA treated animal) was “lesser sign of inflammation and damage”.
